# In patent US5278308A, “Iodine derivatives of tetrabenazine” (The Trustees of The University of Pennsylvania, priority 1992, dated 1994):
# Key:
# [1] = normal and lesioned brain sections; cited from earlier work
# [2] = system: monoamine transporter of chromaffin granules and CNS synaptic vesicles; conditions: cited from earlier work
# rat plasma [3] = assay: Protein binding by Filter (50% rat plasma, Amicon micropartition system); type: in vitro ADME; conditions: 30 min, 37° C.
# Protocol: One mL of rat plasma (50%) was mixed with [^123 I]I-TBZ in a test tube. After 30 min incubation at 37° C., 50 uL ×3 of liquid was removed as initial dose standard (I.D.); the rest was passed through an Amicon micropartition system (Amicon division, W. R. Grace, Danvers, Mass.) by centrifuging for 20 minutes (2,000 rpm) at 0° C. Four samples (50 uL each) were removed from the filtered solution and counted. The protein binding (% bound) was calculated by using the unit counts in filtrate divided by unit counts in ID.
# [4] = Biodistribution in rats (iv injection); type: in vivo; conditions: rat, iv
# Protocol: While under ether anesthesia, each rat was injected in the femoral vein with 0.2 mL saline solution containing [^123 I]I-TBZ (1-5uCi) either racemic mixture, peak-A or peak-B. The rats were sacrificed at various time points postinjection by cardiac excision. The tissues were weighed and the radioactivity was measured with a Canberra gamma counter (Model 5000). The percent dose per organ was calculated by a comparison of the tissue counts to suitably diluted aliquots of the injected material. Total activities of blood and muscle were calculated assuming that they were 7% and 40% of total body weight, respectively Results are presented in Tables 3, 4A and 4B.
# rat plasma [5] = assay: Protein binding by TCA (10% rat plasma, 30 min, 37° C.); type: in vitro ADME; conditions: TCA precipitation
# Protocol: One ml of 10% rat plasma was mixed with [^123 I]I-TBZ in a test tube and the mixture was incubated for 30 minutes at 37° C. To the mixture 0.4 mL of 10% trichloroacetic acid (TCA) was added. The test tube was centrifuged for 10 min. (4,000 rpm), and the top aqueous layer was removed to another test tube for counting The precipitate was washed with water (0.5 mL×2). The combined water and top aqueous layer was counted. The residual precipitate was also counted. The protein binding was obtained by dividing counts in precipitate with counts in aqueous layers.
# [6] = Regional brain distribution in rats (dissection, iv injection); type: in vivo; conditions: rat, listed as I-TBZ peak B
# Protocol: Regional brain distribution of [^123 I]I-TBZ (with either a racemic mixture, peak A or B) in rats was obtained after an iv injection. By dissecting, weighing and counting samples from different brain regions (cortex, striatum, hippocampus and cerebellum), % dose/gram of the samples was calculated by comparing the sample counts with the counts of the diluted initial dose. The ratio of uptake in each region was obtained by dividing % dose/gram of each region with that of the cerebellum. The effect of tetrahydrobenazine on the uptake of peak A or peak B was investigated by pretreating the rats with the TBZ 3 mg/rat at 3 min before iv injection of [^123 I]I-TBZ. At 20 min. post injection the rats were dissected and the regional brain dissection was carried out as above.
smiles,measurement,setting,value
"COc1cc2c(cc1OC)C1CC(O)C(CC(C)C)CN1CC2 (stereo not shown) [[^3 H]dihydro-TBZ, 2-hydroxy-3-(2-methylpropyl)-9,10-dimethoxy-1,3,4,6,7,11b-hexahydro-2H -benzo[a]quinolizine]",Regional distribution of binding sites in brain sections (in words),[1],corresponded to the monoamine cell bodies and nerve endings
same,binding affinity for the transporter (in words),[2],does not affect the binding affinity
same,Kd,"[2]; membranes of chromaffin granules and brain tissue samples, in vitro, read-out: binding affinity Kd",2 to 9 nM
"COc1cc2c(cc1OC)C1CC(O)(C=C[123I])C(CC(C)C)CN1CC2 (single isomer, unassigned) [Peak B]","Protein binding, by Filter",rat plasma [3],83.7 ± 0.8 % bound
same,Blood uptake (blood assumed 7% of body weight),[4]; 5 min,4.74 ± 0.36 % Dose/organ
same,Br/Bl (% dose/gram ratio),[4]; 5 min,1.54 ± 0.16
same,Brain uptake,[4]; 5 min,0.74 ± 0.07 % Dose/organ
same,Heart uptake,[4]; 5 min,0.63 ± 0.03 % Dose/organ
same,Kidney uptake,[4]; 5 min,2.18 ± 0.34 % Dose/organ
same,Liver uptake,[4]; 5 min,22.61 ± 1.85 % Dose/organ
same,Lung uptake,[4]; 5 min,2.02 ± 0.22 % Dose/organ
same,Muscle uptake (muscle assumed 40% of body weight),[4]; 5 min,21.12 ± 1.36 % Dose/organ
same,Skin uptake,[4]; 5 min,7.64 ± 3.09 % Dose/organ
same,Spleen uptake,[4]; 5 min,0.46 ± 0.03 % Dose/organ
same,Thyroid uptake,[4]; 5 min,0.07 ± 0.01 % Dose/organ
same,Blood uptake (blood assumed 7% of body weight),[4]; 20 min,2.76 ± 0.42 % Dose/organ
same,Br/Bl (% dose/gram ratio),[4]; 20 min,1.06 ± 0.22
same,Brain uptake,[4]; 20 min,0.27 ± 0.02 % Dose/organ
same,Heart uptake,[4]; 20 min,0.35 ± 0.02 % Dose/organ
same,Kidney uptake,[4]; 20 min,1.37 ± 0.11 % Dose/organ
same,Liver uptake,[4]; 20 min,17.25 ± 1.25 % Dose/organ
same,Lung uptake,[4]; 20 min,1.05 ± 0.04 % Dose/organ
same,Muscle uptake (muscle assumed 40% of body weight),[4]; 20 min,19.78 ± 1.90 % Dose/organ
same,Skin uptake,[4]; 20 min,8.37 ± 1.15 % Dose/organ
same,Spleen uptake,[4]; 20 min,0.28 ± 0.03 % Dose/organ
same,Thyroid uptake,[4]; 20 min,0.05 ± 0.01 % Dose/organ
same,Blood uptake (blood assumed 7% of body weight),[4]; 60 min,1.89 ± 0.13 % Dose/organ
same,Br/Bl (% dose/gram ratio),[4]; 60 min,0.47 ± 0.05
same,Brain uptake,[4]; 60 min,0.087 ± 0.01 % Dose/organ
same,Heart uptake,[4]; 60 min,0.16 ± 0.01 % Dose/organ
same,Kidney uptake,[4]; 60 min,0.70 ± 0.06 % Dose/organ
same,Liver uptake,[4]; 60 min,8.36 ± 1.01 % Dose/organ
same,Lung uptake,[4]; 60 min,0.46 ± 0.03 % Dose/organ
same,Muscle uptake (muscle assumed 40% of body weight),[4]; 60 min,11.80 ± 2.02 % Dose/organ
same,Skin uptake,[4]; 60 min,5.45 ± 0.64 % Dose/organ
same,Spleen uptake,[4]; 60 min,0.14 ± 0.03 % Dose/organ
same,Thyroid uptake,[4]; 60 min,0.13 ± 0.03 % Dose/organ
same,Blood uptake (blood assumed 7% of body weight),[4]; 120 min,1.89 ± 0.34 % Dose/organ
same,Br/Bl (% dose/gram ratio),[4]; 120 min,0.25 ± 0.03
same,Brain uptake,[4]; 120 min,0.042 ± 0.008 % Dose/organ
same,Heart uptake,[4]; 120 min,0.09 ± 0.02 % Dose/organ
same,Kidney uptake,[4]; 120 min,0.36 ± 0.09 % Dose/organ
same,Liver uptake,[4]; 120 min,4.35 ± 0.50 % Dose/organ
same,Lung uptake,[4]; 120 min,0.27 ± 0.08 % Dose/organ
same,Muscle uptake (muscle assumed 40% of body weight),[4]; 120 min,5.72 ± 1.20 % Dose/organ
same,Skin uptake,[4]; 120 min,4.80 ± 0.46 % Dose/organ
same,Spleen uptake,[4]; 120 min,0.06 ± 0.01 % Dose/organ
same,Thyroid uptake,[4]; 120 min,0.47 ± 0.14 % Dose/organ
same,"Protein binding, by TCA",rat plasma [5],40.8 ± 0.6 % bound
same,"Regional brain uptake, Rem",[6]; 5 min,0.465 ± 0.070 % Dose/g
same,"Regional brain uptake, cerebellum",[6]; 5 min,0.449 ± 0.067 % Dose/g
same,"Regional brain uptake, cortex",[6]; 5 min,0.514 ± 0.066 % Dose/g
same,"Regional brain uptake, hippocampus",[6]; 5 min,0.458 ± 0.074 % Dose/g
same,"Regional brain uptake, striatum",[6]; 5 min,0.482 ± 0.066 % Dose/g
same,Str./Cb (% dose/gram ratio),[6]; 5 min,1.07
same,"Regional brain uptake, Rem",[6]; 20 min,0.172 ± 0.011 % Dose/g
same,"Regional brain uptake, cerebellum",[6]; 20 min,0.162 ± 0.017 % Dose/g
same,"Regional brain uptake, cortex",[6]; 20 min,0.183 ± 0.012 % Dose/g
same,"Regional brain uptake, hippocampus",[6]; 20 min,0.189 ± 0.012 % Dose/g
same,"Regional brain uptake, striatum",[6]; 20 min,0.189 ± 0.001 % Dose/g
same,Str./Cb (% dose/gram ratio),[6]; 20 min,1.17
same,"Regional brain uptake, Rem",[6]; 60 min,0.057 ± 0.006 % Dose/g
same,"Regional brain uptake, cerebellum",[6]; 60 min,0.055 ± 0.005 % Dose/g
same,"Regional brain uptake, cortex",[6]; 60 min,0.060 ± 0.007 % Dose/g
same,"Regional brain uptake, hippocampus",[6]; 60 min,0.058 ± 0.009 % Dose/g
same,"Regional brain uptake, striatum",[6]; 60 min,0.062 ± 0.002 % Dose/g
same,Str./Cb (% dose/gram ratio),[6]; 60 min,1.13
same,"Regional brain uptake, Rem",[6]; 120 min,0.027 ± 0.004 % Dose/g
same,"Regional brain uptake, cerebellum",[6]; 120 min,0.027 ± 0.005 % Dose/g
same,"Regional brain uptake, cortex",[6]; 120 min,0.028 ± 0.005 % Dose/g
same,"Regional brain uptake, hippocampus",[6]; 120 min,0.027 ± 0.004 % Dose/g
same,"Regional brain uptake, striatum",[6]; 120 min,0.027 ± 0.003 % Dose/g
same,Str./Cb (% dose/gram ratio),[6]; 120 min,1.00
